14 molecules from patent US20260070886A1, “QUINOLINE PIPERAZINE DERIVATIVES, PHARMACEUTICAL COMPOSITION AND USES THEREOF” (priority 2022, published 2026) can be followed below.

Holding throughout (assay type): cell-based
Series [1] concerns Non-small cell lung cancer cell lines. Put plainly: Cell toxicity assay, overall statement. Particulars: summary in words of Table 6. An excerpt:
(§1) The following human derived non-small cell lung cancer cell lines were used to test the efficiency of the compounds to cause cell death and assess the anti-cancer properties of said compounds: 1. A549 cells: adenocarcinomic human alveolar basal epithelial cells; these cells are used as models for the study of lung cancer and the development of drug therapies against it • 2. NCI-H-460 cells are also human lung cancer cells, and • 3. NCI-H-522 cells are also human lung cancer cells.
(§2) 500 cells/well/30 μL were seeded in a 384 well cell culture plate. Incubated over night at 37° C., 5% CO2 in cell culture incubator. 10 μL of 4× compound was added to the plates, and incubated for 72 hours at 37° C., 5% CO2 in cell culture incubator. Assay DMSO control were included for 0% cytotoxicity control. Assay was terminated by addition of 10 μL of the reagent CTG 2.0 detection reagent #G9242. Plates were incubated for 20 minute incubation at room temperature with shaking Plate were read in Envision. Ultrasensitive luminescence and data was analyzed and percent cytotoxicity of compounds was determined against DMSO control.
(§3) All the compounds, A1-A116, were tested for cell toxicity using said non-small cell lung cancer cell lines using the above described method.
These selected derivatives of Formula A were further tested to confirm their efficiency as anti-cancer compounds.

Series [2] has as its system NCI-H-522 cells. The series is described as follows: Cell cytotoxicity assay, NCI-H-522 cells. To be noted: Homo sapiens, NCI-H522, 72 hours, percent cytotoxicity against DMSO control; for cytotoxicity at 1 µM: 1 μM compound, read-out: Cell toxicity NCI-H-522 cells 1 μM; for cytotoxicity at 10 µM: 10 μM compound, read-out: Cell toxicity NCI-H-522 cells 10 μM.
Text: as §1, §2, §3

In series [3] the test system is NCI-H-460 cells. Put plainly: Cell cytotoxicity assay, NCI-H-460 cells. Particulars: Homo sapiens, NCI-H460, 72 hours, percent cytotoxicity against DMSO control; for cytotoxicity at 1 µM: 1 μM compound, read-out: Cell toxicity NCI-H-460 cells 1 μM; for cytotoxicity at 10 µM: 10 μM compound, read-out: Cell toxicity NCI-H-460 cells 10 μM.
Text: as §1, §2, §3

In series [4] the test system is A549 cells. Put plainly: Cell cytotoxicity assay, A549 cells. Particulars: Homo sapiens, 72 hours, percent cytotoxicity against DMSO control; for cytotoxicity at 1 µM: 1 μM compound, read-out: Cell toxicity A549 cells 1 μM; for cytotoxicity at 10 µM: 10 μM compound, read-out: Cell toxicity A549 cells 10 μM.
Text: as §1, §2, §3

For the molecule `COc1cc(Nc2nccc(N3CCN(c4ccnc5cc(Cl)ccc45)CC3)n2)cc(OC)c1` [Compound A41, 4-(4-(7-chloroquinolin-4-yl)piperazin-1-yl)-N-(3,5-dimethoxyphenyl)pyrimidin-2-amine], the “activity against Non-small cell lung cancer (cell toxicity)” value in series [1] was “active”. Moreover, the cytotoxicity at 1 µM in series [2] was determined as 7%; in series [3], 2%; in series [4], 23%. In addition, the cytotoxicity at 10 µM came to 56% in series [2], 28% in series [3] and 42% in series [4].

As to `FC(F)(F)c1cc(N2CCN(c3ccnc4cc(Cl)ccc34)CC2)nc(N2CCCCCC2)n1` [Compound A21, 4-(4-(2-(azepan-1-yl)-6-(trifluoromethyl)pyrimidin-4-yl)piperazin-1-yl)-7-chloroquinoline], the “activity against Non-small cell lung cancer (cell toxicity)” value in series [1] is reported as “active”. Moreover, the values for the cytotoxicity at 1 µM in series [2], in series [3] and in series [4] were 1%, -15% and 13%, respectively. Moreover, the cytotoxicity at 10 µM in series [2] is 9%; in series [3], -8%; in series [4], 23%.

For `FC(F)(F)c1cc(N2CCN(c3ccnc4cc(Cl)ccc34)CC2)nc(Nc2ccccc2)n1` [Compound A40, 4-(4-(7-chloroquinolin-4-yl)piperazin-1-yl)-N-phenyl-6-(trifluoromethyl)pyrimidin-2-amine], in series [1], the “activity against Non-small cell lung cancer (cell toxicity)” value is “active”. The cytotoxicity at 1 µM was 6% in series [2], -12% in series [3] and 15% in series [4]. Also, the cytotoxicity at 10 µM in series [2] was 11%; in series [3], -7%; in series [4], 8%.

As for `Cc1cc(N2CCN(c3ccnc4cc(Cl)ccc34)CC2)nc(N2CCCCCC2)n1` [Compound A13, 4-(4-(2-(azepan-1-yl)-6-methylpyrimidin-4-yl)piperazin-1-yl)-7-chloroquinoline], in series [1], the “activity against Non-small cell lung cancer (cell toxicity)” value is “active”. In addition, the cytotoxicity at 1 µM is 3% in series [2], -11% in series [3] and 14% in series [4]. For the same molecule, the cytotoxicity at 10 µM came to 48% in series [2], 47% in series [3] and 88% in series [4].

As for `COc1cc(Nc2nc(N3CCN(c4ccnc5cc(C(F)(F)F)ccc45)CC3)cc(C(F)(F)F)n2)cc(OC)c1` [Compound A45, N-(3,5-dimethoxyphenyl)-4-(trifluoromethyl)-6-(4-(7-(trifluoromethyl)quinolin-4-yl)piperazin-1-yl)pyrimidin-2-amine], the “activity against Non-small cell lung cancer (cell toxicity)” value in series [1] is listed as “active”. Besides, the figures for the cytotoxicity at 1 µM in series [2], in series [3] and in series [4] were 7%, 0% and 8%, respectively. For the same molecule, the cytotoxicity at 10 µM is 55% in series [2], 12% in series [3] and 83% in series [4].

Turning to `Cc1cc(N2CCN(c3ccnc4cc(Cl)ccc34)CC2)nc(N2CCOCC2)n1` [Compound A16, 4-(4-(4-(7-chloroquinolin-4-yl)piperazin-1-yl)-6-methylpyrimidin-2-yl)morpholine], in series [1], the “activity against Non-small cell lung cancer (cell toxicity)” value was “active”. For the same molecule, the results for the cytotoxicity at 1 µM in series [2], in series [3] and in series [4] were 8%, -11% and 9%, respectively. For the same molecule, the cytotoxicity at 10 µM in series [2] was 12%; in series [3], -6%; in series [4], -17%.

As for `FC(F)(F)c1cc(N2CCN(c3ccnc4cc(Cl)ccc34)CC2)nc(N2CCCC2)n1` [Compound A19, 7-chloro-4-(4-(2-(pyrrolidin-1-yl)-6-(trifluoromethyl)pyrimidin-4-yl)piperazin-1-yl)quinoline], the “activity against Non-small cell lung cancer (cell toxicity)” value in series [1] is reported as “active”. In addition, the cytotoxicity at 1 µM in series [2] is 11%; in series [3], -8%; in series [4], 25%. Also, the cytotoxicity at 10 µM in series [2] came out at 48%; in series [3], 45%; in series [4], 87%.

Take `Fc1cccc(F)c1Nc1nc(N2CCN(c3ccnc4cc(Cl)ccc34)CC2)cc(C(F)(F)F)n1` [Compound A33, 4-(4-(7-chloroquinolin-4-yl)piperazin-1-yl)-N-(2,6-difluorophenyl)-6-(trifluoromethyl)pyrimidin-2-amine]: in series [1], the “activity against Non-small cell lung cancer (cell toxicity)” value is on record as “active”. The cytotoxicity at 1 µM in series [2] was 2%; in series [3] it was -9%; in series [4] it was 8%. Moreover, the cytotoxicity at 10 µM in series [2] is 17%; in series [3] it was 3%; in series [4] it was -8%.

As for `FC(F)(F)c1cc(N2CCN(c3ccnc4cc(Cl)ccc34)CC2)nc(N2CCNCC2)n1` [Compound A22, 7-chloro-4-(4-(2-(piperazin-1-yl)-6-(trifluoromethyl)pyrimidin-4-yl)piperazin-1-yl)quinoline], the “activity against Non-small cell lung cancer (cell toxicity)” value in series [1] is “active”. Besides, the cytotoxicity at 1 µM in series [2] is 1%; in series [3], -14%; in series [4] it was 11%. In addition, the cytotoxicity at 10 µM is 11% in series [2], -2% in series [3] and 17% in series [4].

Consider `FC(F)(F)c1cc(N2CCN(c3ccnc4cc(Cl)ccc34)CC2)nc(N2CCCCC2)n1` [Compound A20, 7-chloro-4-(4-(2-(piperidin-1-yl)-6-(trifluoromethyl)pyrimidin-4-yl)piperazin-1-yl)quinoline], for which the “activity against Non-small cell lung cancer (cell toxicity)” value in series [1] is given as “active”. In addition, the cytotoxicity at 1 µM was 8% in series [2], -10% in series [3] and 37% in series [4]. Also, the cytotoxicity at 10 µM is 43% in series [2], 60% in series [3] and 89% in series [4].

Consider `FC(F)(F)c1cc(N2CCN(c3ccnc4cc(Cl)ccc34)CC2)nc(Nc2ccncc2)n1` [Compound A36, 4-(4-(7-chloroquinolin-4-yl)piperazin-1-yl)-N-(pyridin-4-yl)-6-(trifluoromethyl)pyrimidin-2-amine], for which the “activity against Non-small cell lung cancer (cell toxicity)” value in series [1] is on record as “active”. Moreover, the figures for the cytotoxicity at 1 µM in series [2], in series [3] and in series [4] were 2%, -11% and 0%, respectively. In addition, the figures for the cytotoxicity at 10 µM in series [2], in series [3] and in series [4] were 72%, 98% and 99%, respectively.

Take `FC(F)(F)c1cc(N2CCN(c3ccnc4cc(Cl)ccc34)CC2)nc(N2CCOCC2)n1` [Compound A24, 4-(4-(4-(7-chloroquinolin-4-yl)piperazin-1-yl)-6-(trifluoromethyl)pyrimidin-2-yl)morpholine]: the “activity against Non-small cell lung cancer (cell toxicity)” value in series [1] is “active”. Besides, the results for the cytotoxicity at 1 µM in series [2], in series [3] and in series [4] were 0%, -9% and -1%, respectively. Besides, the cytotoxicity at 10 µM is 8% in series [2], -6% in series [3] and 22% in series [4].

For `COc1cc(Nc2nc(C)cc(N3CCN(c4ccnc5cc(C(F)(F)F)ccc45)CC3)n2)cc(OC)c1` [Compound A44, N-(3,5-dimethoxyphenyl)-4-methyl-6-(4-(7-(trifluoromethyl)quinolin-4-yl)piperazin-1-yl)pyrimidin-2-amine], the “activity against Non-small cell lung cancer (cell toxicity)” value in series [1] is given as “active”. The cytotoxicity at 1 µM was found to be 8% in series [2], 0% in series [3] and 26% in series [4]. The cytotoxicity at 10 µM in series [2] stood at 26%; in series [3], 7%; in series [4], 18%.

For `COc1cc(Nc2nc(C)cc(N3CCN(c4ccnc5cc(Cl)ccc45)CC3)n2)cc(C(F)(F)F)c1` [Compound A2, 4-(4-(7-chloroquinolin-4-yl)piperazin-1-yl)-N-(3-methoxy-5-(trifluoromethyl)phenyl)-6-methylpyrimidin-2-amine], the “activity against Non-small cell lung cancer (cell toxicity)” value in series [1] is recorded as “active”. For the same molecule, the cytotoxicity at 1 µM in series [2] was 4%; in series [3] it was -8%; in series [4] it was 9%. The cytotoxicity at 10 µM was 14% in series [2], -3% in series [3] and 1% in series [4].
